Assay results from patent publication US20230085307A1, “PYRIDAZINONE COMPOUND AND HERBICIDE” (NISSAN CHEMICAL CORPORATION, priority 2019, published 2023).

System: lambsquarters
Experiment: Test Example 4: herbicidal effect by soil treatment (Table 19, symbol O)
Type: in vivo, lambsquarters (Chenopodium album)
Details: AAH 320 g/ha
Method in brief: (§1)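 Herbicidal effect was rated 3 weeks after treatment, using the scoring criteria of an earlier test. The compound, formulated as an emulsion and diluted in water to a set herbicide amount, had been sprayed uniformly on soil over freshly sown seeds. Growth took place in a greenhouse at 25° C. to 30° C.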

SMILES	O: lambsquarters, herbicidal effect rating
Cc1nn(C)c(=O)c(-c2c(-c3ccc(OCc4ccccc4)cc3)sc3ccccc23)c1O [1-133]	1 (Herbicidal rate of 5% or more and less than 20%)

System: windgrass
Experiment: Test Example 4: herbicidal effect by soil treatment (Table 19, symbol L)
Type: in vivo, windgrass (Apera spica-venti)
Details: AAH 320 g/ha
Method in brief: as §1

SMILES	L: windgrass, herbicidal effect rating
Cc1nn(C)c(=O)c(-c2c(-c3ccc(OCc4ccccc4)cc3)sc3ccccc23)c1O [1-133]	0 (Herbicidal rate of 5% or less (almost no effect))

System: southern crabgrass
Experiment: Test Example 4: herbicidal effect by soil treatment (Table 19, symbol F)
Type: in vivo, southern crabgrass (Digitaria ciliaris)
Details: AAH 320 g/ha
Method in brief: as §1

SMILES	F: southern crabgrass, herbicidal effect rating
Cc1nn(C)c(=O)c(-c2c(-c3ccc(OCc4ccccc4)cc3)sc3ccccc23)c1O [1-133]	2 (Herbicidal rate of 20% or more and less than 40%)

System: velvetleaf
Experiment: Test Example 4: herbicidal effect by soil treatment (Table 19, symbol M)
Type: in vivo, velvetleaf (Abutilon theophrasti)
Details: AAH 320 g/ha
Method in brief: as §1

SMILES	M: velvetleaf, herbicidal effect rating
Cc1nn(C)c(=O)c(-c2c(-c3ccc(OCc4ccccc4)cc3)sc3ccccc23)c1O [1-133]	0 (Herbicidal rate of 5% or less (almost no effect))

System: blackgrass
Experiment: Test Example 5: herbicidal effect by foliage application, plastic box (Table 20, symbol J)
Type: in vivo, blackgrass (Alopecurus myosuroides)
Details: foliage application, AAH 320 g/ha, three weeks after application
Method in brief: (§2)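 Foliar spray test: emulsion formulation diluted in water to a set application rate, sprayed onto 14-day-old plants raised in diluvial soil at 25° C to 30° C under glass. Both herbicidal effect and crop effect rated visually three weeks later.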

SMILES	J: blackgrass, herbicidal effect
Cc1nn(C)c(=O)c(-c2c(-c3ccc(OCc4ccccc4)cc3)sc3ccccc23)c1O [1-133]	1 (Herbicidal rate of 5% or more and less than 20%)

System: late watergrass
Experiment: Test Example 1: herbicidal activity, application before weed generation under submerged conditions (Table 16, symbol A)
Type: in vivo, late watergrass (Echinochloa oryzicola)
Details: 320 g/ha applied herbicide
Method in brief: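 Emulsion formulation, water-diluted to set dose, was put onto the flooded surface (4 cm depth, alluvial soil) the same day weeds were sown and 2.5-leaf rice transplanted. After 3 weeks at 25-30 °C under glass, each species was rated 0 (≤5% kill) to 5 (≥90% kill).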

SMILES	Herbicidal effect on A: late watergrass (grade 0-5)
Cc1nn(C)c(=O)c(-c2c(-c3ccc(OCc4ccccc4)cc3)sc3ccccc23)c1O [1-133]	5 (Herbicidal rate of 90% or more (almost completely withered))

System: late watergrass
Experiment: Test Example 2: herbicidal activity, application during weed generation under submerged conditions (Table 17, symbol A)
Type: in vivo, late watergrass (Echinochloa oryzicola)
Details: AAH 320 g/ha; application during weed generation, submerged conditions
Method in brief: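 Wagner pot, alluvial soil, 4 cm flood; mixed sowing of all species; greenhouse 25° C.–30° C. Emulsifiable formulation, water-diluted to predetermined dose, applied to paddy water at 1–2 leaf stage. Effect rated at 3 wk using the earlier test's scoring criteria.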

SMILES	herbicidal effect rating, A: late watergrass
Cc1nn(C)c(=O)c(-c2c(-c3ccc(OCc4ccccc4)cc3)sc3ccccc23)c1O [1-133]	1 (Herbicidal rate of 5% or more and less than 20%)

System: barnyard grass
Experiment: Test Example 3: herbicidal effect by foliage application, Wagner pot (Table 18, symbol H)
Type: in vivo, barnyard grass (Echinochloa crus-galli)
Details: 320 g/ha
Method in brief: (§3)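 Plants were sown in alluvial soil held under 0.1–0.5 cm standing water and grown 14 days in a greenhouse at 25–30 °C. An emulsifiable formulation, water-diluted to the set dose, was then sprayed onto the foliage, and effects were scored three weeks later using previously defined criteria.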

SMILES	herbicidal effect on H (barnyard grass), rating 0-5
Cc1nn(C)c(=O)c(-c2c(-c3ccc(OCc4ccccc4)cc3)sc3ccccc23)c1O [1-133]	5 (Herbicidal rate of 90% or more (almost completely withered))

System: Italian ryegrass
Experiment: Test Example 4: herbicidal effect by soil treatment (Table 19, symbol K)
Type: in vivo, Italian ryegrass (Lolium multiflorum)
Details: AAH 320 g/ha
Method in brief: as §1

SMILES	K: Italian ryegrass, herbicidal effect rating
Cc1nn(C)c(=O)c(-c2c(-c3ccc(OCc4ccccc4)cc3)sc3ccccc23)c1O [1-133]	0 (Herbicidal rate of 5% or less (almost no effect))

System: blackgrass
Experiment: Test Example 4: herbicidal effect by soil treatment (Table 19, symbol J)
Type: in vivo, blackgrass (Alopecurus myosuroides)
Details: AAH 320 g/ha
Method in brief: as §1

SMILES	J: blackgrass, herbicidal effect rating
Cc1nn(C)c(=O)c(-c2c(-c3ccc(OCc4ccccc4)cc3)sc3ccccc23)c1O [1-133]	0 (Herbicidal rate of 5% or less (almost no effect))

System: redroot pigweed
Experiment: Test Example 5: herbicidal effect by foliage application, plastic box (Table 20, symbol N)
Type: in vivo, redroot pigweed (Amaranthus retroflexus)
Details: foliage application, AAH 320 g/ha, three weeks after application
Method in brief: as §2

SMILES	N: redroot pigweed, herbicidal effect
Cc1nn(C)c(=O)c(-c2c(-c3ccc(OCc4ccccc4)cc3)sc3ccccc23)c1O [1-133]	5 (Herbicidal rate of 90% or more (almost completely withered))

System: lambsquarters
Experiment: Test Example 5: herbicidal effect by foliage application, plastic box (Table 20, symbol O)
Type: in vivo, lambsquarters (Chenopodium album)
Details: foliage application, AAH 320 g/ha, three weeks after application
Method in brief: as §2

SMILES	O: lambsquarters, herbicidal effect
Cc1nn(C)c(=O)c(-c2c(-c3ccc(OCc4ccccc4)cc3)sc3ccccc23)c1O [1-133]	5 (Herbicidal rate of 90% or more (almost completely withered))

System: velvetleaf
Experiment: Test Example 5: herbicidal effect by foliage application, plastic box (Table 20, symbol M)
Type: in vivo, velvetleaf (Abutilon theophrasti)
Details: foliage application, AAH 320 g/ha, three weeks after application
Method in brief: as §2

SMILES	M: velvetleaf, herbicidal effect
Cc1nn(C)c(=O)c(-c2c(-c3ccc(OCc4ccccc4)cc3)sc3ccccc23)c1O [1-133]	0 (Herbicidal rate of 5% or less (almost no effect))

System: Italian ryegrass
Experiment: Test Example 5: herbicidal effect by foliage application, plastic box (Table 20, symbol K)
Type: in vivo, Italian ryegrass (Lolium multiflorum)
Details: foliage application, AAH 320 g/ha, three weeks after application
Method in brief: as §2

SMILES	K: Italian ryegrass, herbicidal effect
Cc1nn(C)c(=O)c(-c2c(-c3ccc(OCc4ccccc4)cc3)sc3ccccc23)c1O [1-133]	1 (Herbicidal rate of 5% or more and less than 20%)

System: Chinese sprangletop
Experiment: Test Example 3: herbicidal effect by foliage application, Wagner pot (Table 18, symbol D)
Type: in vivo, chinese sprangletop (Leptochloa chinensis)
Details: 320 g/ha
Method in brief: as §3

SMILES	herbicidal effect on D (Chinese sprangletop), rating 0-5
Cc1nn(C)c(=O)c(-c2c(-c3ccc(OCc4ccccc4)cc3)sc3ccccc23)c1O [1-133]	3 (Herbicidal rate of 40% or more and less than 70%)

System: persian speedwell
Experiment: Test Example 4: herbicidal effect by soil treatment (Table 19, symbol R)
Type: in vivo, Persian speedwell (Veronica persica)
Details: AAH 320 g/ha
Method in brief: as §1

SMILES	R: persian speedwell, herbicidal effect rating
Cc1nn(C)c(=O)c(-c2c(-c3ccc(OCc4ccccc4)cc3)sc3ccccc23)c1O [1-133]	5 (Herbicidal rate of 90% or more (almost completely withered))
